In the supplement of paper PMC10307832:

Assays:
Assay in all cases: relative viability (nuclei count vs DMSO), 5 days (fraction); higher = more cells survive
Dasatinib + Vorinostat = compound: Cc1nc(Nc2ncc(C(=O)Nc3c(C)cccc3Cl)s2)cc(N2CCN(CCO)CC2)n1 [Dasatinib] + O=C(CCCCCCC(=O)Nc1ccccc1)NO [Vorinostat] (partner 1 µM)
Outline: (§1)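 The day after seeding in 1536-well plates, lung cancer cell lines were treated by pin tool with a single drug, or with a fixed anchor-drug dose together with five library-drug doses (not always all listed) in √10 steps. After 5 days, a combined fix-and-stain solution (final 0.05% Triton X-100, 1% formaldehyde, 1 ug/ml Hoechst) was added. Nuclei counted on 4× images gave relative viability as treated counts over vehicle counts, reported as the median of duplicate plates.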

XMD13-2 + Bortezomib = compound: C1CC1C(=O)NC2=NNC3=C2C=CC(=C3)C4=CC(=CC=C4)C(=O)NC5CC5 [XMD13-2] + CC(C)C[C@H](NC(=O)[C@H](Cc1ccccc1)NC(=O)c1cnccn1)B(O)O [Bortezomib] (partner 0.002 µM)
Outline: as §1

ALW-II-49-7 + Vorinostat = compound: Cc1ccc(C(=O)Nc2cccc(C(F)(F)F)c2)cc1Nc1cncc(C(N)=O)c1 [ALW-II-49-7] + O=C(CCCCCCC(=O)Nc1ccccc1)NO [Vorinostat] (partner 1 µM)
Outline: as §1

Dasatinib + Lapatinib = compound: Cc1nc(Nc2ncc(C(=O)Nc3c(C)cccc3Cl)s2)cc(N2CCN(CCO)CC2)n1 [Dasatinib] + CS(=O)(=O)CCNCc1ccc(-c2ccc3ncnc(Nc4ccc(OCc5cccc(F)c5)c(Cl)c4)c3c2)o1 [Lapatinib] (partner 2 µM)
Outline: as §1

Cell Line: UMC-11
- relative viability (Dasatinib + Vorinostat; first compound 0.005 µM): 0.409
- relative viability (Dasatinib + Vorinostat; first compound 0.01581 µM): 0.289
- relative viability (Dasatinib + Vorinostat; first compound 0.05 µM): 0.315
- relative viability (Dasatinib + Vorinostat; first compound 0.1581 µM): 0.203
- relative viability (Dasatinib + Vorinostat; first compound 0.5 µM): 0.218
- relative viability (XMD13-2 + Bortezomib; first compound 0.05 µM): 0.737
- relative viability (XMD13-2 + Bortezomib; first compound 0.1581 µM): 0.896
- relative viability (XMD13-2 + Bortezomib; first compound 0.5 µM): 0.825
- relative viability (XMD13-2 + Bortezomib; first compound 1.581 µM): 0.587
- relative viability (XMD13-2 + Bortezomib; first compound 5 µM): 0.981
- relative viability (ALW-II-49-7 + Vorinostat; first compound 0.08 µM): 0.36
- relative viability (ALW-II-49-7 + Vorinostat; first compound 0.253 µM): 0.381
- relative viability (ALW-II-49-7 + Vorinostat; first compound 0.8 µM): 0.324
- relative viability (ALW-II-49-7 + Vorinostat; first compound 2.53 µM): 0.357
- relative viability (ALW-II-49-7 + Vorinostat; first compound 8 µM): 0.305
- relative viability (Dasatinib + Lapatinib; first compound 0.005 µM): 0.877
- relative viability (Dasatinib + Lapatinib; first compound 0.01581 µM): 0.702
- relative viability (Dasatinib + Lapatinib; first compound 0.05 µM): 0.835
- relative viability (Dasatinib + Lapatinib; first compound 0.1581 µM): 0.333
- relative viability (Dasatinib + Lapatinib; first compound 0.5 µM): 0.377
